# Paper PMC8162438, “Cancer cell-selective modulation of mitochondrial respiration and metabolism by potent organogold(III) dithiocarbamates” (Chemical Science, 2020)
# System: MRC5
# Assay: MTT cell viability, human fetal lung fibroblasts MRC5
# Format: cell-based
# Conditions: 72 h
# Experimental: All the gold(III) dithiocarbamate compounds display remarkable cell killing potential in a panel of breast, ovarian, lung and leukemia cancers. Preliminary studies focused on different cancer cell lines (MDA-MB-231, MDA-MB-175, and A2780), an immortalized normal retinal epithelial cell line (RPE-NEO) and human fetal lung fibroblasts (MRC5) (Fig. S111–S129 ^†). These adherent cells were exposed to a serial-diluted concentration of all ten compounds for 72 h. The cells were subsequently treated with 3-(4,5-dimethylthiazol-2-yl)-2,5-diphenyltetrazolium bromide (MTT) solutions, dissolved with DMSO and the absorbance at 570 nm was measured with a plate-reader.
# In Vitro Biological Assays
# Cell Culture. All cell lines were purchased from ATCC and routinely grown in a humidified incubator at 37 °C with 5-10% CO 2. MDA-MB-231, MDA-MB-175, MRC5, RPE-NEO, H460, and K562 were grown in DMEM supplemented with 10% FBS, 1% amphotericin and 1% penicillin/streptomycin. A2780 cells were grown in RPMI supplemented with 10% FBS, 1% amphotericin, and 1% penicillin/streptomycin, and 4 mM glutamine. All supplements along with PBS and trypsin-EDTA were purchased from Corning Inc. and used as is. […]
# Cell Viability of 1a-1e and 2a-2e (Adherent Cell Lines). The cell viability of all 10 complexes were performed in MDA-MB-231, MDA-MB-175, A2780, RPE-NEO and MRC5. The cell viability of compound 2a was also determined in H460. Cells were grown to confluency and trypsin was added to detach and harvest cells. The cells were washed with 2 mL of PBS and suspended in 10 mL of the appropriate media. The cells were centrifuged at 2000 rpm for 5 minutes and the pellet washed with 2 mL of PBS then suspended in 5 mL of the appropriate […]
# media. The cells were plated at a density of 2,000 cells/well in a 96-well clear bottom plate and allowed to adhere overnight at 37 °C with 5-10% CO 2. The compounds were prepared as a stock in DMSO and used fresh. The compounds were added at seven concentrations with a 3x serial dilution starting at 50 µM for the highest concentration and incubated at 37 °C for 72 h with 5-10% CO 2. The medium was removed and a solution of MTT (100 µL, prepared by dissolving MTT at 5 mg/mL and diluting by 10x with DMEM) was added to each well and incubated for 4 h at 37 ° C with 5-10% CO 2. The dye was removed from each well and 100 µL of DMSO was added to induce cell lysis. The plates were read using a Genios plate reader (λ = 570 nm). The experiment was performed in triplicate and data are plotted as the mean ± s.e.m. (n = 3). Data for 2a can be found in the main text (Figure 6) and the other complexes can be seen in the supplementary figures (S111 – S129). […]
# Cells were grown to confluency and centrifuged at 2000 rpm for 5 minutes to collect the cell pellet. The cells were washed with 5 mL of PBS, suspended in 5 mL of DMEM, and centrifuged again at 2000 rpm for 5 minutes to collect the pellet. The pellet was then washed with 2 mL of PBS and suspended in 5 mL of DMEM. The cells were plated at density of 2,000 cells/well in a 96-well white bottom plate. 2a was prepared as a stock solution […]
# 10% CO 2. The cells were removed from the incubator and allowed to rest at room temperature for 30 minutes. To each designated well was then added 20 µL of CellTiter-Glo solution and orbitally shaken for 5 minutes and the luminescence (1000 ms integration and 150 ms gain) acquired on a Genios plate reader. The experiment was performed in triplicate. Data are plotted […]
# Apoptosis Analysis. […]
# A stock of 2a was prepared fresh in DMSO and added to the desired well at a concentration of 1 µM with a final volume of 2.5 mL and incubated for 4 h at 37 °C. A stock of H2O2 was prepared in PBS and the cells treated at a final concentration of 2 mM for 1 hour as a […]
row,Structure (SMILES),IC50 [µM]
1,CC[N+](CC)=C1[S][Au-2]2([S]1)[c]1ccccc1C(=O)c1cccc[n+]12.F[P-](F)(F)(F)(F)F (centres unmarked) [1b],> 50
2,F[P-](F)(F)(F)(F)F.O=C1c2cccc[c]2[Au-2]2([S]C(=[N+]3CCCCC3)[S]2)[n+]2ccccc21 (centres unmarked) [1c],> 50
3,F[P-](F)(F)(F)(F)F.O=C1c2cccc[c]2[Au-2]2([S]C(=[N+]3CCN(c4ccc(Br)cc4)CC3)[S]2)[n+]2ccccc21 (centres unmarked) [1d],> 50
4,COc1ccc(N2CC[N+](=C3[S][Au-2]4([S]3)[c]3ccccc3C(=O)c3cccc[n+]34)CC2)cc1.F[P-](F)(F)(F)(F)F (centres unmarked) [1e],> 50
5,CC[N+](CC)=C1[S][Au-2]2([S]1)[c]1ccccc1Cc1cccc[n+]12.F[P-](F)(F)(F)(F)F (centres unmarked) [2b],> 50
6,F[P-](F)(F)(F)(F)F.c1cc[c]2c(c1)Cc1cccc[n+]1[Au-2]21[S]C(=[N+]2CCCCC2)[S]1 (centres unmarked) [2c],> 50
7,Brc1ccc(N2CC[N+](=C3[S][Au-2]4([S]3)[c]3ccccc3Cc3cccc[n+]34)CC2)cc1.F[P-](F)(F)(F)(F)F (centres unmarked) [2d],> 50
8,COc1ccc(N2CC[N+](=C3[S][Au-2]4([S]3)[c]3ccccc3Cc3cccc[n+]34)CC2)cc1.F[P-](F)(F)(F)(F)F (centres unmarked) [2e],> 50
